# Activity calls are given as the source filed them. The calls are words filed in the database; no cut-off is given here.
# Key:
# [1] = molecular target: T1, Ubiquitin-like modifier-activating enzyme 1 (Homo sapiens) (UniProt P22314); assay: Inhibition of ubiquitin displacement on His6-tagged E2 enzyme from His6-tagged UBA1 (unknown origin) at 10 uM after 1.5 hr by SDS-PAGE analysis
# T1 sequence (whole entry): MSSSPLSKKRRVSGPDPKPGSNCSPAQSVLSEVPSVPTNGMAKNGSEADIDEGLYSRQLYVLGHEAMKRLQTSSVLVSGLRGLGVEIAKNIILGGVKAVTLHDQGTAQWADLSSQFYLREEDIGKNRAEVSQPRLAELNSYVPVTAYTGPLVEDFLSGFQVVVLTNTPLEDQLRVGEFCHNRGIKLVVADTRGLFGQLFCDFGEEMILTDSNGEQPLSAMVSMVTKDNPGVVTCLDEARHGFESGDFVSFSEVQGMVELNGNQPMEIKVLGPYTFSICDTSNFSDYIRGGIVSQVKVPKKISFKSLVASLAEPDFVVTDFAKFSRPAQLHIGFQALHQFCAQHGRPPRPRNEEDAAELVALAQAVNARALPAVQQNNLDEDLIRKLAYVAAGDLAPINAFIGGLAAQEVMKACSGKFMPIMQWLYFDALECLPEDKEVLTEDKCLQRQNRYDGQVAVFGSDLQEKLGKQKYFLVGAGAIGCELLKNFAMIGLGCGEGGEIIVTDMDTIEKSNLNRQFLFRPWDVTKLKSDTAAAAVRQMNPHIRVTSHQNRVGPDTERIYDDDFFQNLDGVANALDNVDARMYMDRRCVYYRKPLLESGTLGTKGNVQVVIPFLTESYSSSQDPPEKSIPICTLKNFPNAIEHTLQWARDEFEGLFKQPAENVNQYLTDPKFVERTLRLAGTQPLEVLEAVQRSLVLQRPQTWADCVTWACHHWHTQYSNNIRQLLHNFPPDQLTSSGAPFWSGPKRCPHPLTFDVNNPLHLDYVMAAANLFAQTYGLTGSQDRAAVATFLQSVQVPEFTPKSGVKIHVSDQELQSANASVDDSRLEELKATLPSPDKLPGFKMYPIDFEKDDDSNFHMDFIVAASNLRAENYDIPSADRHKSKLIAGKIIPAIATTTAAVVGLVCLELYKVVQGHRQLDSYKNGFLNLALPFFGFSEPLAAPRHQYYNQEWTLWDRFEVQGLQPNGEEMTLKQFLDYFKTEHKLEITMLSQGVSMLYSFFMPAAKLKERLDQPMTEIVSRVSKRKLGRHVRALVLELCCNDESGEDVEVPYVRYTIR
# [2] = Cytotoxicity against Homo sapiens (human) breast cancer cells assessed as cell growth at 10^-5 M after 48 hr by SRB assay relative to control; assay type: functional; settings: Cancer cell lines, read-out: Activity
# [3] = Cytotoxicity against Homo sapiens (human) prostate cancer cells assessed as cell growth at 10^-5 M after 48 hr by SRB assay relative to control; assay type: functional; settings: Cancer cell lines, read-out: Activity
# [4] = Cytotoxicity against Homo sapiens (human) renal cancer cells assessed as cell growth at 10^-5 M after 48 hr by SRB assay relative to control; assay type: functional; settings: Cancer cell lines, read-out: Activity
# [5] = Cytotoxicity against Homo sapiens (human) ovarian cancer cells assessed as cell growth at 10^-5 M after 48 hr by SRB assay relative to control; assay type: functional; settings: Cancer cell lines, read-out: Activity
# [6] = Cytotoxicity against Homo sapiens (human) melanoma cells assessed as cell growth at 10^-5 M after 48 hr by SRB assay relative to control; assay type: functional; settings: read-out: Activity
# [7] = Cytotoxicity against Homo sapiens (human) CNSC cells assessed as cell growth at 10^-5 M after 48 hr by SRB assay relative to control; assay type: functional; settings: read-out: Activity
# [8] = Cytotoxicity against Homo sapiens (human) colon cancer cells assessed as cell growth at 10^-5 M after 48 hr by SRB assay relative to control; assay type: functional; settings: Cancer cell lines, read-out: Activity
# [9] = Cytotoxicity against Homo sapiens (human) NSCLC cells assessed as cell growth at 10^-5 M after 48 hr by SRB assay relative to control; assay type: functional; settings: read-out: Activity
# [10] = Cytotoxicity against Homo sapiens (human) leukemia cells assessed as cell growth at 10^-5 M after 48 hr by SRB assay relative to control; assay type: functional; settings: read-out: Activity
# [11] = test system: MCF7; assay: Cytotoxicity against Homo sapiens (human) MCF7 cells after 48 hr by SRB assay; assay type: functional; settings: MCF7, 48 h
# [12] = test system: SN12C; assay: Cytotoxicity against Homo sapiens (human) SN12C cells after 48 hr by SRB assay; assay type: functional
# [13] = test system: A498; assay: Cytotoxicity against Homo sapiens (human) A498 cells after 48 hr by SRB assay; assay type: functional; settings: A498, 48 h
# [14] = test system: OVCAR-3; assay: Cytotoxicity against Homo sapiens (human) OVCAR3 cells after 48 hr by SRB assay; assay type: functional; settings: OVCAR-3, 48 h
# [15] = test system: SNB-75; assay: Cytotoxicity against Homo sapiens (human) SNB75 cells after 48 hr by SRB assay; assay type: functional; settings: SNB-75, 48 h
# [16] = test system: SF-539; assay: Cytotoxicity against Homo sapiens (human) SF539 cells after 48 hr by SRB assay; assay type: functional; settings: SF-539, 48 h
# [17] = test system: SF-268; assay: Cytotoxicity against Homo sapiens (human) SF268 cells after 48 hr by SRB assay; assay type: functional; settings: SF-268, 48 h
# [18] = test system: COLO 205; assay: Cytotoxicity against Homo sapiens (human) COLO205 cells after 48 hr by SRB assay; assay type: functional; settings: COLO 205, 48 h
# [19] = test system: RPMI-8226; assay: Cytotoxicity against Homo sapiens (human) RPMI8226 cells after 48 hr by SRB assay; assay type: functional; settings: RPMI-8226, 48 h
# [20] = test system: HOP-62; assay: Cytotoxicity against Homo sapiens (human) HOP62 cells after 48 hr by SRB assay; assay type: functional; settings: HOP-62, 48 h
structure (smiles),measurement,setting,value
COc1ccc(C(=O)Nc2nc3ccc(OC)cc3s2)cc1,inhibition,[1],inactive
COc1ccc(C(=O)Nc2nc3ccc(OC(F)(F)F)cc3s2)cc1,inhibition,[1],inactive
COc1ccc2nc(NC(=O)Nc3ccc(F)cc3)sc2c1,inhibition,[1],inactive
COc1ccc2nc(NC(=O)c3ccc(F)cc3)sc2c1,inhibition,[1],inactive
O=C(Nc1nc2ccc(OC(F)(F)F)cc2s1)Nc1c(F)cccc1F,inhibition,[1],inactive
same,growth at 10 µM,[2],89.5%
same,growth at 10 µM,[3],83.8%
same,growth at 10 µM,[4],89.4%
same,growth at 10 µM,[5],90.2%
same,growth at 10 µM,[6],89.6%
same,growth at 10 µM,[7],96%
same,growth at 10 µM,[8],91.8%
same,growth at 10 µM,[9],77.6%
same,growth at 10 µM,[10],64.4%
COc1ccc2nc(NC(=O)c3c(F)cccc3F)sc2c1,inhibition,[1],inactive
COc1ccc2nc(NC(=O)c3ccc(C#N)cc3)sc2c1,inhibition,[1],inactive
COc1ccc(NC(=O)Nc2nc3ccc(OC(F)(F)F)cc3s2)cc1,inhibition,[1],inactive
same,growth at 10 µM,[2],97.8%
same,growth at 10 µM,[3],95.3%
same,growth at 10 µM,[4],99.4%
same,growth at 10 µM,[5],97.5%
same,growth at 10 µM,[6],104%
same,growth at 10 µM,[7],103%
same,growth at 10 µM,[8],101%
same,growth at 10 µM,[9],95.8%
same,growth at 10 µM,[10],87%
O=C(Nc1nc2ccc(OC(F)(F)F)cc2s1)c1c(F)cccc1F,inhibition,[1],inactive
COc1ccc2nc(NC(=O)c3ccc(NC(C)=O)cc3)sc2c1,inhibition,[1],inactive
COc1ccc2nc(NC(=O)Nc3ccc(C#N)cc3)sc2c1,inhibition,[1],inactive
N#Cc1ccc(C(=O)Nc2nc3ccc(OC(F)(F)F)cc3s2)cc1,inhibition,[1],inactive
CC(=O)Nc1ccc(C(=O)Nc2nc3ccc(OC(F)(F)F)cc3s2)cc1,inhibition,[1],inactive
O=c1[nH]cc(F)c(=O)[nH]1 [FLUOROURACIL],GI50,[11],79.4 nM
same,GI50,[12],501 nM
same,GI50,[13],398 nM
same,GI50,[14],15.8 nM
same,GI50,[15],79400 nM
same,GI50,[16],63.1 nM
same,GI50,[17],1580 nM
same,GI50,[18],158 nM
same,GI50,[19],44.7 nM
same,GI50,[20],398 nM
COc1ccc(NC(=O)Nc2nc3ccc(OC)cc3s2)cc1,inhibition,[1],inactive
O=C(Nc1nc2ccc(OC(F)(F)F)cc2s1)c1ccc(F)cc1,inhibition,[1],inactive
COc1ccc2nc(NC(=O)Nc3c(F)cccc3F)sc2c1,inhibition,[1],inactive
same,growth at 10 µM,[2],107%
same,growth at 10 µM,[3],100%
same,growth at 10 µM,[4],97.9%
same,growth at 10 µM,[5],108%
same,growth at 10 µM,[6],102%
same,growth at 10 µM,[7],104%
same,growth at 10 µM,[8],107%
same,growth at 10 µM,[9],99.2%
same,growth at 10 µM,[10],91.2%

# — ChEMBL document CHEMBL3046368, “Synthesis of benzothiazole derivatives and their biological evaluation as anticancer agents” (2012)
